Laboratory results published in PubChem BioAssay (NCI).
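All cell lines were grown in 96-well plates and treated with compound for 48 hours. Definition used: TGI = concentration required for complete inhibition of growth.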

What was measured:
Test in all cases: NCI tumour cell line growth inhibition, 48 h
[1] = system: COLO 205 colon
[2] = system: SNB-75 CNS
[3] = system: HCT-15 colon
[4] = system: DMS 273 small cell lung
[5] = system: SW-620 colon
[6] = system: MOLT-4 leukemia
[7] = system: KM12 colon
[8] = system: LOX IMVI melanoma
[9] = system: NCI-H522 lung
[10] = system: HOP-62 NSCLC
[11] = system: RPMI-8226 leukemia
[12] = system: SR leukemia
[13] = system: UACC-62 melanoma
[14] = system: SK-OV-3 ovarian
[15] = system: SNB-78 CNS
[16] = system: UO-31 renal
[17] = system: SK-MEL-2 melanoma
[18] = system: 786-0 renal
[19] = system: NCI-H460 lung
[20] = system: CAKI-1 renal
[21] = system: HT29 colon
[22] = system: RXF 393 renal
[23] = system: NCI-H23 lung
[24] = system: HCT-116 colon
[25] = system: KM20L2 colon
[26] = system: SN12C renal
[27] = system: ACHN renal
[28] = system: OVCAR-4 ovarian
[29] = system: U251 CNS
[30] = system: OVCAR-8 ovarian
[31] = system: OVCAR-5 ovarian
[32] = system: SF-268 CNS
[33] = system: SF-295 CNS
[34] = system: A549 NSCLC
[35] = system: NCI-H226 lung
[36] = system: OVCAR-3 ovarian
[37] = system: A498 renal
[38] = system: DMS 114 small cell lung
[39] = system: K-562 leukemia
[40] = system: EKVX NSCLC
[41] = system: HCC-2998 colon
[42] = system: SNB-19 CNS
[43] = system: TK-10 renal
[44] = system: IGROV1 ovarian
[45] = system: UACC-257 melanoma
[46] = system: M14 melanoma
[47] = system: M19-MEL melanoma
[48] = system: HL-60(TB) leukemia
[49] = system: SK-MEL-28 melanoma
[50] = system: MALME-3M melanoma
[51] = system: SF-539 CNS
[52] = system: BT-549 breast
[53] = system: MDA-MB-435
[54] = system: MDA-MB-231 breast
[55] = system: T-47D breast
[56] = system: NCI/ADR-RES ovarian
[57] = system: HOP-92 NSCLC
[58] = system: CCRF-CEM leukemia
[59] = system: HS 578T breast
[60] = system: MDA-N
[61] = system: MCF7 breast
[62] = system: DU-145 prostate
[63] = system: PC-3 prostate
[64] = system: SK-MEL-5 melanoma

COc1ccc(-n2/c(=N/C(=S)N(C)C)ss/c2=N\C(=S)N(C)C)cc1
TGI [1]: > 100 µM
TGI [2]: 52.6 µM
TGI [3]: > 100 µM
TGI [4]: > 100 µM
TGI [5]: > 100 µM
TGI [6]: > 100 µM
TGI [7]: > 100 µM
TGI [8]: > 100 µM
TGI [9]: 16.6 µM
TGI [10]: > 100 µM
TGI [11]: > 100 µM
TGI [12]: > 100 µM
TGI [13]: 24.8 µM
TGI [14]: > 100 µM
TGI [15]: > 100 µM
TGI [16]: > 100 µM
TGI [17]: > 100 µM
TGI [18]: > 100 µM
TGI [19]: 11.2 µM
TGI [20]: > 100 µM
TGI [21]: 5.97 µM
TGI [22]: > 100 µM
TGI [23]: > 100 µM
TGI [24]: > 100 µM
TGI [25]: > 100 µM
TGI [26]: > 100 µM
TGI [27]: > 100 µM
TGI [28]: 18.5 µM
TGI [29]: > 100 µM
TGI [30]: > 100 µM
TGI [31]: > 100 µM
TGI [32]: > 100 µM
TGI [33]: > 100 µM
TGI [34]: > 100 µM
TGI [35]: > 100 µM
TGI [36]: 53.1 µM
TGI [37]: > 100 µM
TGI [38]: > 100 µM
TGI [39]: > 100 µM
TGI [40]: > 100 µM
TGI [41]: > 100 µM
TGI [42]: 45.5 µM
TGI [43]: > 100 µM
TGI [44]: > 100 µM
TGI [45]: > 100 µM
TGI [46]: > 100 µM
TGI [47]: > 100 µM
TGI [48]: > 100 µM
TGI [49]: > 100 µM
TGI [50]: > 100 µM
TGI [51]: > 100 µM

CS(=O)(=O)OCCCCOS(=O)(=O)CF
TGI [1]: > 100 µM
TGI [2]: > 100 µM
TGI [3]: > 100 µM
TGI [5]: > 100 µM
TGI [6]: > 100 µM
TGI [52]: > 100 µM
TGI [7]: > 100 µM
TGI [8]: > 100 µM
TGI [9]: > 100 µM
TGI [10]: > 100 µM
TGI [11]: > 100 µM
TGI [12]: > 100 µM
TGI [53]: > 100 µM
TGI [13]: > 100 µM
TGI [14]: > 100 µM
TGI [16]: > 100 µM
TGI [17]: > 100 µM
TGI [18]: > 100 µM
TGI [19]: > 100 µM
TGI [20]: > 100 µM
TGI [21]: > 100 µM
TGI [22]: > 100 µM
TGI [23]: > 100 µM
TGI [54]: > 100 µM
TGI [24]: > 100 µM
TGI [55]: > 100 µM
TGI [56]: > 100 µM
TGI [26]: > 100 µM
TGI [27]: > 100 µM
TGI [28]: > 100 µM
TGI [29]: > 100 µM
TGI [57]: > 92.4 µM
TGI [30]: > 100 µM
TGI [58]: > 100 µM
TGI [31]: > 100 µM
TGI [32]: > 100 µM
TGI [33]: > 100 µM
TGI [34]: > 100 µM
TGI [59]: > 100 µM
TGI [35]: > 100 µM
TGI [36]: > 100 µM
TGI [37]: > 100 µM
TGI [60]: > 100 µM
TGI [39]: > 100 µM
TGI [40]: > 100 µM
TGI [41]: > 100 µM
TGI [42]: > 100 µM
TGI [43]: > 100 µM
TGI [44]: > 100 µM
TGI [61]: > 100 µM
TGI [45]: > 100 µM
TGI [62]: > 100 µM
TGI [63]: > 100 µM
TGI [46]: > 100 µM
TGI [48]: > 100 µM
TGI [49]: > 100 µM
TGI [50]: > 46.4 µM
TGI [64]: > 100 µM
TGI [51]: > 100 µM

CSC(=N/C=C/c1ccccc1)SC
TGI [1]: > 100 µM
TGI [2]: > 100 µM
TGI [3]: > 100 µM
TGI [5]: > 100 µM
TGI [6]: > 100 µM
TGI [52]: > 100 µM
TGI [7]: > 100 µM
TGI [8]: > 100 µM
TGI [9]: > 100 µM
TGI [10]: > 100 µM
TGI [11]: > 100 µM
TGI [12]: > 100 µM
TGI [53]: > 100 µM
TGI [13]: > 100 µM
TGI [14]: > 100 µM
TGI [16]: > 100 µM
TGI [17]: > 100 µM
TGI [18]: > 100 µM
TGI [19]: > 100 µM
TGI [20]: > 100 µM
TGI [21]: > 100 µM
TGI [22]: > 100 µM
TGI [23]: > 100 µM
TGI [54]: > 100 µM
TGI [24]: > 100 µM
TGI [55]: > 100 µM
TGI [56]: > 100 µM
TGI [26]: > 100 µM
TGI [27]: > 100 µM
TGI [28]: > 100 µM
TGI [29]: > 100 µM
TGI [57]: > 100 µM
TGI [30]: > 100 µM
TGI [58]: > 100 µM
TGI [31]: > 100 µM
TGI [32]: > 100 µM
TGI [33]: > 100 µM
TGI [34]: > 100 µM
TGI [59]: > 100 µM
TGI [35]: > 100 µM
TGI [36]: > 100 µM
TGI [37]: > 100 µM
TGI [60]: > 100 µM
TGI [39]: > 100 µM
TGI [40]: > 100 µM
TGI [42]: > 100 µM
TGI [44]: > 100 µM
TGI [61]: > 100 µM
TGI [45]: > 100 µM
TGI [62]: > 100 µM
TGI [63]: > 100 µM
TGI [46]: > 100 µM
TGI [48]: > 100 µM
TGI [49]: > 100 µM
TGI [50]: > 100 µM
TGI [51]: > 100 µM

CC1=C(C(=O)OCCO[N+](=O)[O-])C(c2cccc([N+](=O)[O-])c2)C(C(=O)OC(C)C)=C(C)N1 (centres undefined)
TGI [1]: 24.4 µM
TGI [3]: 27.4 µM
TGI [5]: 51.1 µM
TGI [6]: > 100 µM
TGI [52]: 27.1 µM
TGI [7]: 23.1 µM
TGI [8]: 31.6 µM
TGI [9]: 34.9 µM
TGI [10]: 30.9 µM
TGI [11]: > 100 µM
TGI [12]: > 100 µM
TGI [53]: 30.9 µM
TGI [13]: 30.2 µM
TGI [14]: 36.9 µM
TGI [16]: 28.1 µM
TGI [17]: 28 µM
TGI [18]: 35.7 µM
TGI [19]: 34.4 µM
TGI [20]: 95.7 µM
TGI [21]: 29.2 µM
TGI [22]: 31.5 µM
TGI [23]: 45.7 µM
TGI [54]: 26.1 µM
TGI [24]: 22.2 µM
TGI [55]: 53.6 µM
TGI [56]: 34.3 µM
TGI [26]: 36.4 µM
TGI [27]: > 100 µM
TGI [28]: 37.7 µM
TGI [29]: 28.7 µM
TGI [57]: 25.5 µM
TGI [30]: 54.2 µM
TGI [58]: > 100 µM
TGI [31]: 30.4 µM
TGI [32]: 33 µM
TGI [33]: 56.6 µM
TGI [34]: 37.4 µM
TGI [59]: 33.2 µM
TGI [35]: 28.2 µM
TGI [36]: 23.6 µM
TGI [37]: 46.8 µM
TGI [60]: 28.1 µM
TGI [39]: > 100 µM
TGI [40]: 48.9 µM
TGI [41]: 29.6 µM
TGI [42]: 75.4 µM
TGI [43]: 42.9 µM
TGI [44]: 33.9 µM
TGI [61]: 86.3 µM
TGI [45]: 25.2 µM
TGI [62]: 65.9 µM
TGI [63]: 15.6 µM
TGI [46]: 29.5 µM
TGI [48]: > 100 µM
TGI [49]: 28.1 µM
TGI [50]: 51.9 µM
TGI [64]: 26.1 µM
TGI [51]: 30.5 µM
